A word on the IC50: it is the concentration that gives 50% inhibition. What is called inhibition is the drop in the measured response relative to a control, in per cent.

Test [1] has as its target T1, Acetylcholinesterase (Homo sapiens, UniProt P22303). The test is described as follows: Inhibition of recombinant human AChE using acetylthiocholine iodide as substrate by Ellman's method. A general note: Ellman's reagent forms a yellow product with free thiols.
For test [2], the target named is Glycogen synthase kinase-3 beta (Homo sapiens) (UniProt P49841). The test is described as follows: Inhibition of GSK-3beta (unknown origin) at 10 uM by Kinase-GLO reagent based assay. Background: Kinase-Glo measures the ATP left after a reaction by luminescence.
Test [3] has as its target T1, Acetylcholinesterase. The test is described as follows: Inhibition of human AChE using acetylthiocholine iodide as substrate by Ellman's method.
In test [4] the target is 72 kDa type IV collagenase (Homo sapiens, UniProt P08253). The test is described as follows: Inhibition of MMP-2 (unknown origin) by Fluorometric analysis.
A further test is filed under the species Homo sapiens. The test is described as follows: Selectivity index, ratio of IC50 for inhibition of human AChE to IC50 for inhibition of human BuChE.
Test [5] concerns the target T2, Amyloid-beta precursor protein (Homo sapiens, UniProt P05067). The test is described as follows: Inhibition of self-induced amyloid beta (1 to 42) (unknown origin) aggregation by Thioflavin T based fluorometric assay.
Test [6] addresses T1, Acetylcholinesterase. The test is described as follows: Inhibition of recombinant human AChE using acetylthiocholine as substrate by Ellman's method.
For test [7], the target named is T1, Acetylcholinesterase. The test is described as follows: Inhibition of AChE (unknown origin) using acetylthiocholine iodide as substrate preincubated for 45 mins followed by substrate addition by DTNB reagent based Ellman's method.
Test [8] in a line: Antioxidant activity assessed as DPPH radical scavenging activity incubated for 30 mins by DPPH assay. Type of test: functional. On the technique in general: Loss of DPPH colour is used to gauge radical scavenging.
A short description of test [9]: Antioxidant activity assessed as NO radical scavenging activity incubated for 150 mins in presence of sodium nitroprusside by griess reagent based assay. It counts as functional.
In test [10] the target is T2, Amyloid-beta precursor protein. The test is described as follows: Inhibition of amyloid beta (1 to 42) (unknown origin) self aggregation at 100 uM and measured after 24 hrs by Thioflavin T based fluorometric assay.
Test [11] shares this target. The test is described as follows: Inhibition of self induced amyloid beta (1 to 42) (unknown origin) aggregation incubated for 24 hrs by Thioflavin T based fluorometric assay.
Test [12] has as its target T3, Gamma-secretase (Homo sapiens) (UniProt Q96BI3+Q9NZ42+Q8WW43+P49768+Q92542+P49810). The test is described as follows: Inhibition of gamma secretase in human H4 cells expressing human wild type APP assessed as reduction in amyloid beta 1-40 level at 100 uM for 12 hrs by ELISA. Type of test: cell-based.
Test [13] addresses T3, Gamma-secretase (Homo sapiens). The test is described as follows: Inhibition of gamma secretase in human H4 cells expressing human wild type APP assessed as reduction in amyloid beta 1-42 level at 100 uM for 12 hrs by ELISA. It counts as cell-based.
The target of test [14] is T4, Cholinesterase (Equus caballus, UniProt P81908). The test is described as follows: Inhibition of equine serum BuChE using butyrylthiocholine iodide as substrate by Ellman's method.
The target of test [15] is T2, Amyloid-beta precursor protein. The test is described as follows: Inhibition of amyloid beta (1 to 42) (unknown origin) self aggregation at 40 uM and measured after 24 hrs by Thioflavin T based fluorometric assay.
The target in test [16] is T1, Acetylcholinesterase. The test is described as follows: Inhibition of AChE (unknown origin) by spectrophotometric based Ellman's method.
In test [17] the target is T5, Cholinesterase (Homo sapiens, UniProt P06276). The test is described as follows: Inhibition of BuChE (unknown origin) by spectrophotometric based Ellman's method.
Test [18] deals with T6, Acetylcholinesterase (Electrophorus electricus, UniProt O42275). The test is described as follows: Inhibition of Electrophorus electricus AchE using acetylthiocholine iodide as substrate preincubated for 15 mins followed by substrate addition and measured for 6 mins by DTNB reagent based Ellman's method.
The target in test [19] is Fatty-acid amide hydrolase 1 (Homo sapiens, UniProt O00519). The test is described as follows: Inhibition of FAAH (unknown origin) using 7-amino-4-methylcoumarin-arachidonamide as substrate preincubated for 5 mins followed by substrate addition and measured after 30 mins by fluorescence based assay.
Test [20] deals with T6, Acetylcholinesterase. The test is described as follows: Inhibition of electric eel AChE using acetylthiocholine iodide as substrate by spectrophotometric based Ellman's method.
Test [21] concerns the target T4, Cholinesterase. The test is described as follows: Inhibition of horse serum BuChE using butyrylthiocholine chloride as substrate by spectrophotometric based Ellman's method.
Test [22] deals with T6, Acetylcholinesterase. The test is described as follows: Inhibition of Electrophorus electricus AchE using acetylthiocholine iodide as substrate preincubated for 5 mins followed by substrate addition and measured after 5 mins by Ellman's method.
Test [23] concerns the target T4, Cholinesterase. The test is described as follows: Inhibition of equine serum BuChE using butyrylthiocholine iodide as substrate preincubated for 5 mins followed by substrate addition and measured after 5 mins by Ellman's method.
Test [24] deals with Glutamate [NMDA] receptor. The test is described as follows: Inhibition of NMDA receptor (unknown origin). Type of test: protein-complex assay, Homo sapiens.
Test [25] deals with Glutamate receptor ionotropic AMPA (Homo sapiens, UniProt P42261+P42262+P42263+P48058). The test is described as follows: Inhibition of AMPA receptor (unknown origin). Type of test: protein-complex assay.
Test [26] deals with Amine oxidase [flavin-containing] A (Homo sapiens, UniProt P21397). The test is described as follows: Inhibition of recombinant human MAO-A assessed as amount of 4-hydroxyquinoline using kynuramine as a substrate incubated for 30 mins by fluorescence spectrophotometry.
For test [27], the target named is Amine oxidase [flavin-containing] B (Homo sapiens, UniProt P27338). The test is described as follows: Inhibition of recombinant human MAO-B assessed as amount of 4-hydroxyquinoline using kynuramine as a substrate incubated for 30 mins by fluorescence spectrophotometry.
Test [28] addresses T6, Acetylcholinesterase. The test is described as follows: Inhibition of Electrophorus electricus AchE incubated for 15 mins by Ellman's method.
Test [29] concerns the target T5, Cholinesterase. The test is described as follows: Inhibition of BuChE (unknown origin) incubated for 15 mins by Ellman's method.
The nature of test [30]: Antioxidant activity of compound assessed as trolox equivalent of ORAC radical scavenging activity by ORAC-FL assay. It counts as functional.

T4 sequence (P81908 whole entry): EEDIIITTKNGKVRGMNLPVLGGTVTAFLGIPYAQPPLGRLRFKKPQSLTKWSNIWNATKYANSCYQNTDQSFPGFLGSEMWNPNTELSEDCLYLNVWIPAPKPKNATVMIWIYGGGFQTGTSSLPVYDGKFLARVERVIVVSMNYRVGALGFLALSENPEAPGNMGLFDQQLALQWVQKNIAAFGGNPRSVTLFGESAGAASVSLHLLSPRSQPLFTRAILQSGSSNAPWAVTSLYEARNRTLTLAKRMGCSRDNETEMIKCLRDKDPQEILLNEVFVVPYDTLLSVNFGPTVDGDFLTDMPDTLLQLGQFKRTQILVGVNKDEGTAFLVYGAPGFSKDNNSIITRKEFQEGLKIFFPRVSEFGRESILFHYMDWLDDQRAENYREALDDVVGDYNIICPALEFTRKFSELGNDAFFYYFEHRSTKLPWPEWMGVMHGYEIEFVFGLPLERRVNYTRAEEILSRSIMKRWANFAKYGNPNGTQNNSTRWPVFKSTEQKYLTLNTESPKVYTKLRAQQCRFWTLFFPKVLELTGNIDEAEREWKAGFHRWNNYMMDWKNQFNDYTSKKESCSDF
T2 sequence (P05067 whole entry): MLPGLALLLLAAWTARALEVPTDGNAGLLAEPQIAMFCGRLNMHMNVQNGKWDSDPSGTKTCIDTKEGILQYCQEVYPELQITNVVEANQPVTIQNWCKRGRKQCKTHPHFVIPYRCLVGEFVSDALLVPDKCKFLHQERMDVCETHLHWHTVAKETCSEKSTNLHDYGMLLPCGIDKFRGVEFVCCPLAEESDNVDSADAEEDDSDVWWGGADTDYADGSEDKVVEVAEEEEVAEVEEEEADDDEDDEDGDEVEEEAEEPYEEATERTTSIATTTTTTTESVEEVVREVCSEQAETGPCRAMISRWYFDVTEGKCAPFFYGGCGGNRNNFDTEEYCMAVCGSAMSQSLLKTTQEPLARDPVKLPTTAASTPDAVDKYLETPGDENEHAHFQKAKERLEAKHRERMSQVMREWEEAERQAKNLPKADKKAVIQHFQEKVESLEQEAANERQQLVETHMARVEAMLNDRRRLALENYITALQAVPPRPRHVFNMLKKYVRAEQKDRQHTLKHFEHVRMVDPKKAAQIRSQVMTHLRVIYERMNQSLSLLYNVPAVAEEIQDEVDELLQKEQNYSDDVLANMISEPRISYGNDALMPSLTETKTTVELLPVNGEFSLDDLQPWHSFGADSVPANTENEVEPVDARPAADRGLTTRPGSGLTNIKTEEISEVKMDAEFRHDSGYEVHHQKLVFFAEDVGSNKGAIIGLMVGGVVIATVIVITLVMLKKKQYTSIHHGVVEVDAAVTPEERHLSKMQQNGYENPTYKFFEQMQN
T6 sequence (O42275 whole entry): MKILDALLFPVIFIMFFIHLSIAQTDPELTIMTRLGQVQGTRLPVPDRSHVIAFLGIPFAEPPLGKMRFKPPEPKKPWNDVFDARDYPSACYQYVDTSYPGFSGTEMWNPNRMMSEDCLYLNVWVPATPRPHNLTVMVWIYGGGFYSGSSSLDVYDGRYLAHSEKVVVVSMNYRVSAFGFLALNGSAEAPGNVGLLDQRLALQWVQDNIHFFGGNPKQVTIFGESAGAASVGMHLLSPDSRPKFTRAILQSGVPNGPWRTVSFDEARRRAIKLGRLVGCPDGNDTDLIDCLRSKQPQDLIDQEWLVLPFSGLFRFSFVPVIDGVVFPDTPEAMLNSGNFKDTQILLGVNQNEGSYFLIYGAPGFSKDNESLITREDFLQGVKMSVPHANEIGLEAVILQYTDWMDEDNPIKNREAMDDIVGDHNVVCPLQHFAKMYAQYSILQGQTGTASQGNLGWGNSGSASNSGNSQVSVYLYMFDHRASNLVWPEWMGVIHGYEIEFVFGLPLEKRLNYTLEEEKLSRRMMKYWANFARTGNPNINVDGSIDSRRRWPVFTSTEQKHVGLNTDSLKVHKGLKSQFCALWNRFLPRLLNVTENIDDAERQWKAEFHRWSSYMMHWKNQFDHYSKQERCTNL
T1 sequence (P22303 whole entry): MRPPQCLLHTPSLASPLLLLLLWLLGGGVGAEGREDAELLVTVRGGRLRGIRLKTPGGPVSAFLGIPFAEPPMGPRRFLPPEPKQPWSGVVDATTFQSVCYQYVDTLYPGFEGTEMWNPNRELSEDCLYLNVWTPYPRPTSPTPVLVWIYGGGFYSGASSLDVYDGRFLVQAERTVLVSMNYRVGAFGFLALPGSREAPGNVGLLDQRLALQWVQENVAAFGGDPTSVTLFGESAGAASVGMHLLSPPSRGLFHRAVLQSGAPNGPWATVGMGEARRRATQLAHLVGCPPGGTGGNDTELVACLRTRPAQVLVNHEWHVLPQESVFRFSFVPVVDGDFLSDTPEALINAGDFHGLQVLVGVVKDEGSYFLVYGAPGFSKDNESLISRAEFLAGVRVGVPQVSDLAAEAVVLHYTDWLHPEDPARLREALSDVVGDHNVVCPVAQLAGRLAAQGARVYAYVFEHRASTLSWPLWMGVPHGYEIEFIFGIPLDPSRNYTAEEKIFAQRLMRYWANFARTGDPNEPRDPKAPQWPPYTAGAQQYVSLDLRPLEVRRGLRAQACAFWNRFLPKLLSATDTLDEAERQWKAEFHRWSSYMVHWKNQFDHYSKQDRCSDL
T5 sequence (P06276 whole entry): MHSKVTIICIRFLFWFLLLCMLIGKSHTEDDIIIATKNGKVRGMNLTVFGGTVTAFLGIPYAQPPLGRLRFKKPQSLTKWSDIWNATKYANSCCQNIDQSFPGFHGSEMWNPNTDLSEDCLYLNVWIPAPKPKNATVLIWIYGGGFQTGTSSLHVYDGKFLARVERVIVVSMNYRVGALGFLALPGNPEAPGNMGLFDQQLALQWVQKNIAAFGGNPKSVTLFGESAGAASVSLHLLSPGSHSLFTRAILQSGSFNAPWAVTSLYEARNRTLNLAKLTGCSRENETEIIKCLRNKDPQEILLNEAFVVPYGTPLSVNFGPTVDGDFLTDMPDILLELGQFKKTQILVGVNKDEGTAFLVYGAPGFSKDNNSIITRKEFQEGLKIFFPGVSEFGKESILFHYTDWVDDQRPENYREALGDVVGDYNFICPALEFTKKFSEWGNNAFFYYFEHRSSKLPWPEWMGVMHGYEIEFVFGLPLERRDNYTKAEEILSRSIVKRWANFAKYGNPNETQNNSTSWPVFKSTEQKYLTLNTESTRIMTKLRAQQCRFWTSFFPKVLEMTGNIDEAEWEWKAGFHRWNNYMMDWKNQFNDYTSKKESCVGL
Amine oxidase [flavin-containing] A, sequence (P21397 whole entry): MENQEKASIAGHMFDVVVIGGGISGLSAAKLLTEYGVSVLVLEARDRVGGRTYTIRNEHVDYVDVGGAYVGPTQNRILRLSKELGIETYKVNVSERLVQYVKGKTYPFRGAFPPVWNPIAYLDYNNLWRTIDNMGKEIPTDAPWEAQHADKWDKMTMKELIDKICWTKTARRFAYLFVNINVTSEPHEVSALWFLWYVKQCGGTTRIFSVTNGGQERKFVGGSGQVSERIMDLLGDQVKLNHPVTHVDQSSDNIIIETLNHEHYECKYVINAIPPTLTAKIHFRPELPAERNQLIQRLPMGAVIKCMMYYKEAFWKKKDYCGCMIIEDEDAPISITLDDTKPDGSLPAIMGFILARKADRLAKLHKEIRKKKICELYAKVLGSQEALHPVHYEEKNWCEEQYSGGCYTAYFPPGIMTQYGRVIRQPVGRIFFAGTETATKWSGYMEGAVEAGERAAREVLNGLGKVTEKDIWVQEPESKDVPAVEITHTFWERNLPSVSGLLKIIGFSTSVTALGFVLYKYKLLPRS
Fatty-acid amide hydrolase 1, sequence (O00519 whole entry): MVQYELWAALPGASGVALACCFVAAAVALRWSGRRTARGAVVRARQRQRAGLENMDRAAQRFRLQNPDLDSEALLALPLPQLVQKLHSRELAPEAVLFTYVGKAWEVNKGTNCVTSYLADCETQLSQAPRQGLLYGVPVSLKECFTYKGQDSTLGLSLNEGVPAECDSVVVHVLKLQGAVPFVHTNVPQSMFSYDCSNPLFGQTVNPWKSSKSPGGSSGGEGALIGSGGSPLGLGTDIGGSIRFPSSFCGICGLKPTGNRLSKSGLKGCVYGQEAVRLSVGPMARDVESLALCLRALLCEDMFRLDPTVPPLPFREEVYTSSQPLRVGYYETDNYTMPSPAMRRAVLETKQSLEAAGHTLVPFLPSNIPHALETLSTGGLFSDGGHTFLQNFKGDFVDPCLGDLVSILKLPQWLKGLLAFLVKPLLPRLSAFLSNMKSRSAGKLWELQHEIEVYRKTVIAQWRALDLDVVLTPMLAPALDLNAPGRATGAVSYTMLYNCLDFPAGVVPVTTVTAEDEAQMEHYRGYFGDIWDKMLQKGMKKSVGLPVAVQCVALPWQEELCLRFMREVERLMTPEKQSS
Amine oxidase [flavin-containing] B, sequence (P27338 whole entry): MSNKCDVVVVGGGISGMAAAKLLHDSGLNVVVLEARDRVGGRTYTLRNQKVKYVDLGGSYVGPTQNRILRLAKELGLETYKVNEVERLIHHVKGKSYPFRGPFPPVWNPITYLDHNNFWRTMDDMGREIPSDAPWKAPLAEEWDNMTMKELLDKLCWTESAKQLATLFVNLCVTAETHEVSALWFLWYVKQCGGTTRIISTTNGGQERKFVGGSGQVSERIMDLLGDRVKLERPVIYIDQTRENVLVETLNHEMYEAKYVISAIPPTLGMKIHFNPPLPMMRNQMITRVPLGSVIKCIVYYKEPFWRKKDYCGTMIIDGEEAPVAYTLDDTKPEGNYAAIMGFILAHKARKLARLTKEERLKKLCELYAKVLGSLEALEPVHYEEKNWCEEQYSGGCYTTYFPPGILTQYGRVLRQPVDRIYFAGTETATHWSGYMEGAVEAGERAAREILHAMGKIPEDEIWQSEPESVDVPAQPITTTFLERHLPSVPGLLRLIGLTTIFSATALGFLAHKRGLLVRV

As to `CO[C@@H]1C=C[C@@]23c4cc5c(cc4CN(C[C@@H]2OC(=O)c2ccc([N+](=O)[O-])cc2)C3C1)OCO5` (some centres not stated), at Acetylcholinesterase [1], the IC50 turned out to be 14.7 µM. In test [2], this compound showed an inhibition of 27%.
As for `O=c1cc(/N=N/N=P(CCP(=N/N=N/c2cc(=O)oc3ccccc23)(c2ccccc2)c2ccccc2)(c2ccccc2)c2ccccc2)c2ccccc2o1`, the IC50 against Acetylcholinesterase [3] worked out at 0.035 µM; in test [4], 441 µM; in [5], 338 µM. In addition, the Ratio IC50 in the test listed under Homo sapiens worked out at 3.81.
With `Clc1ccc2c(NCCCNCC34CC5CC(CC(C5)C3)C4)ccnc2c1`, the 50% inhibitory concentration (IC50) on Acetylcholinesterase [6] came out at 0.5 µM.
With `CC1(C)CCCC2(C)OC(=O)C=C12` (racemic) [DIHYDROACTINIDIOLIDE], the IC50 at Acetylcholinesterase [7] was found to be 0.03 µM; in test [8] it was 0.05 µM; in test [9] it was 50 µM.
In test [10], `CCOC(=O)C(Cc1cn(-c2ccccc2)nn1)(Cc1cn(-c2ccccc2)nn1)NC(C)=O` registered an inhibition of 96.9%. Further, in [11], the IC50 is 8.06 µM.
For the compound `O=S(=O)(NC1C2CC3CC(C2)CC1C3)c1cccs1` (configuration not stated), the results for the inhibition in test [12] and in [13] were 10% and 22%, respectively.
For the compound `CCN1CCN(c2ccc(-c3nc4ccccc4[nH]3)cc2)CC1`, the figures for the IC50 on Acetylcholinesterase [1] and on Cholinesterase [14] were 5.18 µM and 34.9 µM, respectively.
On to `COc1cc(-c2nc3ccccc3s2)ccc1OCC(=O)NCCCNc1c2c(nc3ccccc13)CCCC2`, for which the inhibition in [15] worked out at 33.7%.
Turning to `O=C(OC[C@H]1O[C@@H](OC(=O)c2cc(O)c(O)c(O)c2)[C@H](OC(=O)c2cc(O)c(O)c(O)c2)[C@@H](OC(=O)c2cc(O)c(O)c(O)c2)[C@@H]1O)c1cc(O)c(O)c(O)c1`, the results for the IC50 against Acetylcholinesterase [16] and at Cholinesterase [17] were 11.9 µM and 18.3 µM, respectively.
Consider `CCCCCCCNC(=O)Oc1cccc(CN(C)CCCCCOc2ccc3[nH]c(=O)ccc3c2)c1`, for which the results for the IC50 (against Acetylcholinesterase [18]; in [19]) were 0.39 µM and 0.83 µM, respectively.
`O=C(N/N=C/Nc1c2c(nc3ccccc13)CCCC2)C12CC3CC(CC(C3)C1)C2`: the IC50 against Acetylcholinesterase [20] came to 6.77 µM; at Cholinesterase [21], 0.615 µM.
As for `CCCN1CCN(c2ncc(CCN(C)CCCc3ccccc3)s2)CC1`, the figures for the IC50 at Acetylcholinesterase [22] and at Cholinesterase [23] were 14 µM and 14.6 µM, respectively.
With `NCCCCCCNC1(c2ccccc2)CCCCC1`, the IC50 in [24] amounted to 0.24 µM; in [25] it was 1.7 µM.
Turning to `CCN(CCCCOc1ccc(/C=C/C(=O)N2CCc3ccccc3C2)cc1OC)Cc1ccccc1`, the IC50 in test [26] is 6.3 µM; in test [27], 8.6 µM; against Acetylcholinesterase [28] it was 12.1 µM; against Cholinesterase [29], 8.9 µM. For the same compound, the Activity in test [30] amounted to 0.53 equiv.
